Test results taken from US10500166B2, “Methods for the treatment of erectile dysfunction using fispemifene” (QUATRX PHARMACEUTICALS, priority 2007, dated 2019).

Tested on: testosterone/E2 ratio
Test: Example 3 study in hypogonadal men: testosterone/E2 ratio (ITT)
Format: in vivo, human
Details: for Testosterone/E2 Ratio % Change from Baseline to Week 2, Max / Testosterone/E2 Ratio % Change from Baseline to Week 2, Mean ± SD / Testosterone/E2 Ratio % Change from Baseline to Week 2, Median / Testosterone/E2 Ratio % Change from Baseline to Week 2, Min: Week 2, (Week minus Baseline) divided by Baseline; for Testosterone/E2 Ratio % Change from Baseline to Week 2, Max / Testosterone/E2 Ratio % Change from Baseline to Week 2, Mean ± SD / Testosterone/E2 Ratio % Change from Baseline to Week 2, Median / Testosterone/E2 Ratio % Change from Baseline to Week 2, Min / Testosterone/E2 Ratio % Change from Baseline to Week 4, Max / Testosterone/E2 Ratio % Change from Baseline to Week 4, Mean ± SD / Testosterone/E2 Ratio % Change from Baseline to Week 4, Median / Testosterone/E2 Ratio % Change from Baseline to Week 4, Min / Testosterone/E2 Ratio % Change from Baseline to Week 6, Max / Testosterone/E2 Ratio % Change from Baseline to Week 6, Mean ± SD / Testosterone/E2 Ratio % Change from Baseline to Week 6, Median / Testosterone/E2 Ratio % Change from Baseline to Week 6, Min: LOCF; for Testosterone/E2 Ratio % Change from Baseline to Week 4, Max / Testosterone/E2 Ratio % Change from Baseline to Week 4, Mean ± SD / Testosterone/E2 Ratio % Change from Baseline to Week 4, Median / Testosterone/E2 Ratio % Change from Baseline to Week 4, Min: Week 4, (Week minus Baseline) divided by Baseline; for Testosterone/E2 Ratio % Change from Baseline to Week 6, Max / Testosterone/E2 Ratio % Change from Baseline to Week 6, Mean ± SD / Testosterone/E2 Ratio % Change from Baseline to Week 6, Median / Testosterone/E2 Ratio % Change from Baseline to Week 6, Min: Week 6, (Week minus Baseline) divided by Baseline
Procedure: A randomized, double-blind, placebo controlled, parallel-group study of once-daily doses of fispemifene (100, 200, and 300 mg/day) given for 4 weeks was conducted in a population of hypogonadal men. Subjects were required to meet all of the following inclusion criteria at screening and prior to randomization to be eligible for the study:
There were 77 subjects total. The number of subjects randomized to the 100 mg fispemifene, 200 mg fispemifene, 300 mg fispemifene, and placebo arms were 21, 21, 19, and 16, respectively.
Subjects were randomly assigned to one of four treatment groups in a 1:1:1:1 ratio: • Treatment A (100 mg): fispemifene 100 mg+placebo+placebo; • Treatment B (200 mg): fispemifene 100 mg+fispemifene 100 mg+placebo; • Treatment C (300 mg): fispemifene 100 mg+fispemifene 100 mg+fispemifene 100 mg; and • Treatment D (Placebo): placebo+placebo+placebo.
Subjects took one dose (three capsules) of study medication once a day at home for 4 weeks. Capsules were to be taken in the morning immediately after breakfast, with the exception of the morning of the Week 4 visit. Capsules were not to be taken on the morning of the Week 4 visit because trough plasma levels of fispemifene were determined by a blood sample taken at this visit. Each subject was randomly assigned to treatment with one of the 3 different dose regimens of fispemifene or placebo vehicle. Each subject received a 4 week supply of study drug.
Blood samples were taken from the subjects within 1 week prior to dosing with study drug to establish baseline values; after 2 and 4 weeks of randomization; and 2 weeks after the last dose of study drug. Serum was prepared from those samples and used to determine the mean % change from baseline in total testosterone, free testosterone, SHBG (sex hormone-binding globulin), DHT (dihydrotestosterone), E2 (estradiol), LH (luteinizing hormone), FSH (follicle stimulating hormone), and inhibin B.
3. Percent change from baseline in SHBG, DHT, E2, LH, FSH, inhibin B, and testosterone/E2 ratio at Weeks 2, 4, and 6.

OCCOCCOc1ccc(/C(=C(/CCCl)c2ccccc2)c2ccccc2)cc1 [Fispemifene, (Z)-2-{2-[4-(4-Chloro-1,2-diphenylbut-1-enyl)phenoxy]ethoxy}ethanol]
Testosterone/E2 Ratio % Change from Baseline to Week 2, Max (100 mg): 1.21 | Testosterone/E2 Ratio % Change from Baseline to Week 2, Mean ± SD (100 mg): 0.21 ± 0.457 | Testosterone/E2 Ratio % Change from Baseline to Week 2, Median (100 mg): 0.18 | Testosterone/E2 Ratio % Change from Baseline to Week 2, Min (100 mg): −0.39 | Testosterone/E2 Ratio % Change from Baseline to Week 4, Max (100 mg): 1.57 | Testosterone/E2 Ratio % Change from Baseline to Week 4, Mean ± SD (100 mg): 0.22 ± 0.482 | Testosterone/E2 Ratio % Change from Baseline to Week 4, Median (100 mg): 0.13 | Testosterone/E2 Ratio % Change from Baseline to Week 4, Min (100 mg): −0.29 | Testosterone/E2 Ratio % Change from Baseline to Week 6, Max (100 mg): 0.411 | Testosterone/E2 Ratio % Change from Baseline to Week 6, Mean ± SD (100 mg): −0.002 ± 0.1993 | Testosterone/E2 Ratio % Change from Baseline to Week 6, Median (100 mg): 0.029 | Testosterone/E2 Ratio % Change from Baseline to Week 6, Min (100 mg): −0.337 | Testosterone/E2 Ratio Actual Value at Baseline (Visit 2), Max (100 mg): 27.0 | Testosterone/E2 Ratio Actual Value at Baseline (Visit 2), Mean ± SD (100 mg): 15.2 ± 6.39 | Testosterone/E2 Ratio Actual Value at Baseline (Visit 2), Median (100 mg): 14.7 | Testosterone/E2 Ratio Actual Value at Baseline (Visit 2), Min (100 mg): 5.2 | Testosterone/E2 Ratio % Change from Baseline to Week 2, Max (200 mg): 0.93 | Testosterone/E2 Ratio % Change from Baseline to Week 2, Mean ± SD (200 mg): 0.25 ± 0.418 | Testosterone/E2 Ratio % Change from Baseline to Week 2, Median (200 mg): 0.19 | Testosterone/E2 Ratio % Change from Baseline to Week 2, Min (200 mg): −0.29 | Testosterone/E2 Ratio % Change from Baseline to Week 4, Max (200 mg): 1.08 | Testosterone/E2 Ratio % Change from Baseline to Week 4, Mean ± SD (200 mg): 0.18 ± 0.387 | Testosterone/E2 Ratio % Change from Baseline to Week 4, Median (200 mg): 0.17 | Testosterone/E2 Ratio % Change from Baseline to Week 4, Min (200 mg): −0.34 | Testosterone/E2 Ratio % Change from Baseline to Week 6, Max (200 mg): 0.937 | Testosterone/E2 Ratio % Change from Baseline to Week 6, Mean ± SD (200 mg): 0.019 ± 0.3760 | Testosterone/E2 Ratio % Change from Baseline to Week 6, Median (200 mg): −0.030 | Testosterone/E2 Ratio % Change from Baseline to Week 6, Min (200 mg): −0.517 | Testosterone/E2 Ratio Actual Value at Baseline (Visit 2), Max (200 mg): 30.2 | Testosterone/E2 Ratio Actual Value at Baseline (Visit 2), Mean ± SD (200 mg): 14.2 ± 5.73 | Testosterone/E2 Ratio Actual Value at Baseline (Visit 2), Median (200 mg): 14.9 | Testosterone/E2 Ratio Actual Value at Baseline (Visit 2), Min (200 mg): 6.3 | Testosterone/E2 Ratio % Change from Baseline to Week 2, Max (300 mg): 1.43 | Testosterone/E2 Ratio % Change from Baseline to Week 2, Mean ± SD (300 mg): 0.21 ± 0.372 | Testosterone/E2 Ratio % Change from Baseline to Week 2, Median (300 mg): 0.15 | Testosterone/E2 Ratio % Change from Baseline to Week 2, Min (300 mg): −0.24 | Testosterone/E2 Ratio % Change from Baseline to Week 4, Max (300 mg): 1.12 | Testosterone/E2 Ratio % Change from Baseline to Week 4, Mean ± SD (300 mg): 0.33 ± 0.428 | Testosterone/E2 Ratio % Change from Baseline to Week 4, Median (300 mg): 0.36 | Testosterone/E2 Ratio % Change from Baseline to Week 4, Min (300 mg): −0.53 | Testosterone/E2 Ratio % Change from Baseline to Week 6, Max (300 mg): 0.65 | Testosterone/E2 Ratio % Change from Baseline to Week 6, Mean ± SD (300 mg): 0.12 ± 0.250 | Testosterone/E2 Ratio % Change from Baseline to Week 6, Median (300 mg): 0.11 | Testosterone/E2 Ratio % Change from Baseline to Week 6, Min (300 mg): −0.29 | Testosterone/E2 Ratio Actual Value at Baseline (Visit 2), Max (300 mg): 23.1 | Testosterone/E2 Ratio Actual Value at Baseline (Visit 2), Mean ± SD (300 mg): 11.5 ± 4.87 | Testosterone/E2 Ratio Actual Value at Baseline (Visit 2), Median (300 mg): 10.6 | Testosterone/E2 Ratio Actual Value at Baseline (Visit 2), Min (300 mg): 1.7
